These results are taken from ChEMBL document CHEMBL3507680, “University of Dundee, Gates Library screen for HepG2 cell viability”.

Structures are written as SMILES.

The nature of this data set: Human HepG2 cell viability assay in 384 well format. In kind it is toxicity, cell-based. Further details: dose 125 nL, time 70.5 hour; cytotoxicity at 70.5 h: concentration not given beside the values. Conditions: HepG2 cells, read-out: Inhibition.
As to `COc1ccc(CCNC(=O)N2CCCC(c3nncn3C)C2)cc1` (stereo not given), the cytotoxicity at 70.5 h was -4.56%. For `CC(C)Cc1cc(CNC(=O)C2CCCN(C(=O)N(C)C)C2)no1` (stereo not given) the value was -2.31%; for `O=C(NCCC(O)c1ccco1)c1ccccc1Br` (stereo not given), -2.47%. The result for `CCOc1ccc(Cl)cc1C(C(=O)O)N1CCCC1` (stereo not given) reads -2.88%; that for `CN(CCc1ccccc1)C1CCCN(Cc2nccn2C)C1` (stereo not given), -4.92%; that for `Cc1noc(C)c1CC(=O)N1CCCC(n2ccnc2C)C1` (stereo not given), -15.6%. With `c1ccc(-c2cccc(N3CCC(NCCc4cscn4)CC3)c2)cc1`, the cytotoxicity at 70.5 h is -7.94%. The result for `O=C(NCCn1ccnc1)NCC(c1ccco1)N1CCCC1` (stereo not given) reads 9.47%; that for `Cc1ncnc2c1CCN(C(=O)Cc1cccc(F)c1)CC2`, 0.979%; that for `COc1ncnc(N)c1CNCC(C)Oc1ccccc1Cl` (stereo not given), -3.69%. Regarding `Cc1c(Cl)ccc2ccc(NC(CO)CO)nc12`, the cytotoxicity at 70.5 h was determined as 6.75%. On to `Cn1cc(C2COC3(CCN(C(=O)Cc4ccccc4)CC3)C2)cn1` (stereo not given), for which the cytotoxicity at 70.5 h is -8.09%. Consider `COCCC(=O)N1C[C@H]2CN(Cc3cccc(C)c3)C(=O)[C@H]2C1`, for which the cytotoxicity at 70.5 h is -10.7%.

Turning to `O=C(c1ncccn1)N1CCC[C@]2(C[C@@H](OCC3CC3)CO2)C1`, the cytotoxicity at 70.5 h was -16.4%. The result for `Cc1c(C(=O)N2CCS(=O)(=O)CC2)nnn1-c1ccc2ncccc2c1` reads -4.2%; that for `Cc1ccc2[nH]c(CO[C@H]3CN(C(=O)C4CC4)C[C@H]3F)nc2c1`, 3.41%; that for `Cc1ccc(N2CCC3(CN(Cc4cccs4)CCC3(F)F)C2)nn1` (stereo not given), -7.32%.

On to `CCOC(=O)N1CCC(OC)c2ccccc2N(C)C(=O)C1` (stereo not given), for which the cytotoxicity at 70.5 h is 1.4%. For `Cn1nnc2c1C(COCC1CC1)CN(C(=O)[C@H]1CCCO1)C2` (stereo not given in full), the cytotoxicity at 70.5 h came to 0%. For `O=C(O)C(c1cccc2c1OCC2)N1CCC(N2CCCC2)CC1` (stereo not given), the cytotoxicity at 70.5 h is -0.16%. The result for `CC(C)(C)OC(=O)N1CC(=O)N(Cc2ccco2)CC(O)C1` (stereo not given) reads -7.3%; that for `CO[C@@H]1CCN(C(=O)c2ccsc2)[C@@H]2CN(CC3CC3)C[C@@H]21`, -4.96%. In the case of `COc1ccc(Cl)cc1CS(=O)(=O)Cc1cc(C)on1`, the cytotoxicity at 70.5 h was -5.88%.

Turning to `Cc1nn(C)c(C)c1C(=O)N1CCN(c2ccncc2Cl)CC1`, the cytotoxicity at 70.5 h is -6.89%.

For the compound `Cc1ncsc1CN(C)Cc1cc2c(cc1OC(F)F)OCO2`, the cytotoxicity at 70.5 h is 5.16%.

For the compound `CCCOc1ccc(NC(=O)NCCC(=O)N(C)C)cc1Cl`, the cytotoxicity at 70.5 h was -4.39%. For `Nc1nc(C(=O)NCC2CCC3(CCNCC3)CO2)cs1` (stereo not given) the value was -13.9%.

With `CCc1noc(CN(C)CC(c2cccs2)N2CCOCC2)n1` (stereo not given), the cytotoxicity at 70.5 h was -1.63%. Take `O=C(NC1CCN(c2ncccc2F)C1)c1cccc(-n2ccnn2)c1` (stereo not given): the cytotoxicity at 70.5 h is -6.27%. For `CCNc1cc2c(nn1)CCN(C(=O)c1cccc3c1OCO3)C2`, the cytotoxicity at 70.5 h was determined as 3.22%. Consider `O=C(NCCc1cccnc1)c1nc2c(s1)CCCN2C(=O)C1CC1`, for which the cytotoxicity at 70.5 h was -7.13%. The result for `CN1CCCC(c2cncc(C(=O)NCc3ccccc3Cl)n2)C1` (stereo not given) reads -7.68%; that for `CSc1cccc(CNC(=O)C2CC(=O)N(CCN(C)C)C2)c1` (stereo not given), 4.55%; that for `COCC1(C(=O)N2CCC(c3nccn3CC3CC3)CC2)CCC1`, 2.4%. For `CCOc1ncccc1NC(=O)N1CCN(c2cccc(C)c2C)CC1` the value was 21.9%; for `CCN(C)C[C@@H]1CN(S(=O)(=O)c2cccc(Cl)c2)C[C@@H]1CO`, 2.35%. The result for `OCCN1CCN(CC(O)c2ccc(C(F)(F)F)cc2)CC1` (stereo not given) reads 33.3%; that for `Cc1nnc(CN(C)Cc2nc3c(s2)CCCC3)o1`, -5.09%. In the case of `CCC(O)Cn1nc(-c2ccc(C(=O)O)cc2)cc1-c1ccc(F)cc1` (stereo not given), the cytotoxicity at 70.5 h was -5.44%. For `Cc1ccc(N2CCc3sc(C(=O)N4CCOCC4)cc32)nn1` the value was 2.34%; for `c1ccc(-c2nc(CN3CCn4c(nnc4C4CC4)C3)cs2)cc1`, -11.8%. For `CSc1ccsc1C(=O)NS(=O)(=O)c1cccc(C#N)c1`, the cytotoxicity at 70.5 h is -13.1%. In the case of `O=C(Cc1ccc(F)cc1)N1CCCC(c2n[nH]c3nccnc23)C1` (stereo not given), the cytotoxicity at 70.5 h worked out at 11.2%. For the compound `Cn1cc(CN2CCOC3(CCCN(c4cccc(F)c4)C3)C2)cn1` (stereo not given), the cytotoxicity at 70.5 h was -7.93%. As for `Cc1noc(C)c1CNS(=O)(=O)N(C)Cc1ccccc1Br`, the cytotoxicity at 70.5 h was -9.08%. For `Fc1cccc(-c2nccnc2C2CCCNC2)c1` (stereo not given) the value was -11.7%; for `Cc1nc(CN(C)C2CCN(CCCc3ccccc3)C2)no1` (stereo not given), -2.23%; for `CN(c1ccc(CNc2ccc(Cl)cn2)cc1)S(C)(=O)=O`, -4.71%.

Consider `Cn1ccnc1C(=O)N1CCC(Cn2cc(-c3ccsc3)nn2)CC1`, for which the cytotoxicity at 70.5 h was -8.29%. As for `CCc1noc(CN2CCOC3(CCCC3)C2)n1`, the cytotoxicity at 70.5 h was -2.11%. The result for `COc1c(F)cc(-c2cccc3c2OC(CN)C3)cc1F` (stereo not given) reads 0.0982%; that for `O=C(c1ccc(C2CCCN2)s1)N1CCC2(CCCO2)CC1` (stereo not given), -6.68%.

In the case of `CN(C)C(=O)N1CCN(c2ccc(Cl)nn2)C(=O)C1`, the cytotoxicity at 70.5 h is -7.53%. With `CC(Oc1ccccc1)C(=O)N1CCCN(Cc2cscn2)CC1` (stereo not given), the cytotoxicity at 70.5 h is 6.19%.

Turning to `CCCn1cc(C(=O)NC(CC(=O)O)c2ccccc2F)c(C)n1` (stereo not given), the cytotoxicity at 70.5 h amounted to 6.87%. As for `CCN1CCC(CC(=O)NCC(O)c2ccc3ccccc3c2)CC1` (stereo not given), the cytotoxicity at 70.5 h was found to be 9.43%. On to `CCS(=O)(=O)N1CC(=O)N(CCOc2ccccc2)CC(O)C1` (stereo not given), for which the cytotoxicity at 70.5 h is -2.23%. For `CCN1CC(C)(C)CN(C(=O)CCc2ccccc2)CC1=O`, the cytotoxicity at 70.5 h was -5.69%. Turning to `O=C(COc1coc(CN2CCOCC2)cc1=O)Nc1ccc(Cl)cc1`, the cytotoxicity at 70.5 h was -17.6%. For `OC1CCCN(Cc2ccc(F)c3cccnc23)C1` (stereo not given) the value was -0.871%; for `Cc1ncc(-c2ccnc(NC3CC3)n2)c(-c2cccnc2)n1`, 14.2%. Turning to `COc1cccc2c1OCC(NC(=O)NCCC(N)=O)C2` (stereo not given), the cytotoxicity at 70.5 h is -7.75%. For `COCCn1/c(=N\C(=O)CN(C)S(C)(=O)=O)sc2cc(OC)ccc21` the value was 17.2%; for `Cc1nc(CN2CCO[C@H]3[C@@H](Oc4ccccn4)CC[C@@H]32)cs1`, 18.6%.

Take `O=C(NCCc1ccco1)Nc1cc(C(F)(F)F)c[nH]c1=O`: the cytotoxicity at 70.5 h is -0.302%. For `CCS(=O)(=O)N1CCC2(COCc3cnc(N4CCOCC4)nc32)C1` (stereo not given) the value was -6.84%. The result for `COc1ccc(-c2nccn2CCN2CCCCC2)c(OC)c1OC` reads 4.66%; that for `CC(=O)N1CCCC(c2ccc(N3CCN(C)CC3)cn2)C1` (stereo not given), -3.54%; that for `Cc1ccnc(NC(=O)C2CCN(CCCn3ccnc3C)CC2)c1`, -13%. For the compound `COCCN(C)[C@@H]1c2ccccc2C2(CCNCC2)[C@H]1O`, the cytotoxicity at 70.5 h is -4.67%.

Regarding `Cn1cc(Br)cc(NC(=O)CC2CCC2)c1=O`, the cytotoxicity at 70.5 h is -6.41%. Consider `Cc1noc(C)c1CN1CC[C@H]2[C@@H]1CCC(=O)N2CC1CCOCC1`, for which the cytotoxicity at 70.5 h is -3.53%. As for `N#Cc1ccc(C(=O)N2CC(c3nc(-c4ncccn4)no3)C2)cc1`, the cytotoxicity at 70.5 h is -13.2%.

For the compound `CCOc1ccccc1OC1CCN(C(=O)c2cnsn2)CC1`, the cytotoxicity at 70.5 h was -1.79%. The result for `CNC(=O)Cn1ccc2ccc(NC(=O)NC(C)C(C)C)cc21` (stereo not given) reads -9.08%; that for `CN1CCCC1c1cncc(C(=O)NCC2CC2)n1` (stereo not given), -6.82%; that for `COc1cc(N(C)CCC(O)c2ccccc2)ncn1` (stereo not given), -3.53%. The result for `CCCc1nc(C(=O)N2CCCn3nc(CCC(=O)O)cc3C2)cs1` reads -9.99%; that for `Cc1ccc(C(=O)N2C[C@H]3CCC[C@@]3(COCc3ccncc3)C2)cn1`, -7.42%; that for `Cc1ncnc2c1CCN(c1ccccn1)CC2`, -14%. The result for `Fc1ccc(-c2n[nH]cc2-c2ccnc(NCCN3CCCC3)n2)cc1` reads 24%.

In the case of `COc1ccccc1CC1CCCN(CC(=O)NC2CC2)C1` (stereo not given), the cytotoxicity at 70.5 h is -8.21%.

Consider `Cc1nc(C)n(C2CCCN(C(=O)Cc3cn4ccccc4n3)C2)n1` (stereo not given), for which the cytotoxicity at 70.5 h is 1.25%. In the case of `COc1c(C2CCCN2C(=O)c2ccnc(C)n2)c(C)nn1C` (stereo not given), the cytotoxicity at 70.5 h was -12.9%. On to `CC(C)(C)c1ncc(C(=O)NCc2cccc(C(=O)N3CCCC3)c2)s1`, for which the cytotoxicity at 70.5 h was -1.76%.

`COCCN(Cc1ccoc1)C(=O)CSc1ccc(F)cc1`: the cytotoxicity at 70.5 h is -5.61%. For `O=C(CCc1cc2n(n1)CCN(Cc1ccncc1)C2)N1CCCC1` the value was 18.6%; for `CC(O)C(=O)N1CCC(c2[nH]ncc2-c2ccccc2)CC1` (stereo not given), 20.2%. With `CS(=O)(=O)CCOc1nc(-c2ccccc2Cl)no1`, the cytotoxicity at 70.5 h was -102%. For `NC(=O)C(NC(=O)Cc1cnn(-c2ccccc2)n1)c1ccccc1` (stereo not given) the value was -0.915%; for `CC(=O)NCC(=O)N1CCn2cc(CN3CCCCC3)nc2C1`, -1.68%; for `COc1ccc(C2CCCN2C(=O)c2ccnc(NC3CC3)c2)cc1` (stereo not given), 6.42%. As for `CC(=O)NCCNC(=O)CN1CCOC(Cn2cccn2)C1` (stereo not given), the cytotoxicity at 70.5 h stood at 0.989%. For `Cc1ccc(CN2C[C@H](N3CCOCC3)[C@@H]3OCCC[C@@H]32)o1`, the cytotoxicity at 70.5 h was -0.951%. Turning to `FC(F)(F)c1nc(C2CCNCC2)no1`, the cytotoxicity at 70.5 h was -2.97%. On to `CCN(CC)CCNc1ncc(-c2cc(C)no2)c(-c2ccoc2C)n1`, for which the cytotoxicity at 70.5 h is -10.5%. The result for `Cc1csc(C(=O)N2CCC(S(C)(=O)=O)C2)c1` (stereo not given) reads -3.26%; that for `COc1ccc(Br)cc1CCC(=O)N1CCCC1`, -0.161%; that for `O=C(C(CNCc1cccnc1)c1ccccc1)N1CCOCC1` (stereo not given), -8.37%. For `CC(CS(C)(=O)=O)N(C(=O)c1ccc(Cl)s1)C1CC1` (stereo not given) the value was -9.46%.
